This is an account of results in US4853384A, “1-carbonyl derivatives of 4-aryl-4-aryloxypiperidines” (Hoechst-Roussel Pharmaceuticals Inc., priority 1988, dated 1989).

What all share (format): in vivo, mice (male, Charles River, CD-1)
The test system of experiment [1] is mice. Nature of the experiment: Metrazol lethality assay (MTZ), anticonvulsant activity. The note with it: Mus musculus, po. The protocol:
(§1) The compounds of this invention are also useful as anticonvulsants due to their anticonvulsant activity in mammals. Anticonvulsant activity is measured in male mice using the supramaximal electroshock (SES) assay described in Arch. Int. Pharmacodyn. 92, pp. 97-107, (1952) and the metrazol lethality assay (MTZ) described in J. Pharmacol. Exp. Ther., 81, 402 (1944).
Groups of male mice (Charles River, CD-1), weighing 18 to 30 grams are employed in the Metrazol lethality assay. Test compounds are dissolved in distilled water or if insoluble, suspended in water, to which a surfactant, such as Tween-80 is added. The test compounds are administered orally, the administered dose being dissolved or suspended in 10 ml of solution or suspension per kg of animal body weight. Control animals (2 mice/group) receive water or water and Tween-80, i.e., the vehicle for administration of the test compound. Metrazol (pentylenetetrazol) is dissolved in water (concentration 225 mg of Metrazol/10 ml of solution), and the solution is administered subcutaneously to groups of five animals each at one or more time intervals of 15, 30, 60, 90, or 120 minutes after administration of the test compound. The number of animal alive 15 minutes after treatment with Metrazol is determined and recorded. The following formula is employed to calculate the percent protection against Metrazol lethality. [formula]
A dose range determination is performed by substantially the same procedure as the time response determination. In the dose range determination, five groups of 10 animals per group are employed. This determination is generally reserved for those compounds which protect against lethality by greater than 70% at the screening dose employed.
(§2) The anticonvulsant activity of several of the compounds of this invention as per the SES and MTZ assay procedures is provided in Table 2.

Experiment [2] concerns mice. Nature of the experiment: phenyl-p-quinone (phenyl-p-benzoquinone) writhing assay in mice, analgesia. The protocol:
The procedure employed to determine analgetic utility is a modification of the phenyl-p-benzoquinone writhing assay in mice, a standard assay for analgesia [Proc. Soc. Exptl. Bio. […] The solution is administered to the subject mice intraperitoneally at a dose of 10 ml per kg of body weight. A characteristic "writhe" an inward rotation of one or more feet with twisting and turning of the trunk, drawing in of the abdominal wall, lordosis and arching of the back, is produced. A total of 28 male mice (Charles River, CD-1), weighing 18 to 30 grams, are employed for a time response. The subject animals receive food and water ad libitum. Test compounds are dissolved in distilled water, or suspended in distilled water containing one drop of a suitable surfactant, such as Tween-80. […] A control group (2 animals per group) receive an equal volume of the vehicle. After the administration of the phenyl-p-quinone, the mice are place separately in one liter beakers, and after five minutes, are observed for ten minutes. The number of writhes for each animal is recorded. The following formula is used to compute the percent inhibition: [formula] The time period with the greatest percent of inhibition is considered the peak time.

Experiment [3] concerns mice. The experiment can be described thus: supramaximal electroshock (SES) assay, anticonvulsant activity. The note with it: Mus musculus, ip. The protocol: as §1
Groups of male mice (Charles River, CD-1) weighing 18 to 30 g are employed in the SES assay. Test compounds are dissolved in distilled water, or if insoluble, suspended in water containing one drop of a surfactant, such as Tween-80. Test compounds are generally administered intraperitoneally at a dose of 10 ml of solution, or suspension, per kg of animal body weight. The output terminals of an A.C. shocker, which delivers 206 volts rms for 300 msec, are placed across the animals' eyes, an electrode paste coating assuring contact of the terminals with the eyes. The test compound is administered and thereafter the subject animals are shocked.
Protection is expressed as normalized percent inhibition relative to vehicle control. [formula] A time response is carried out using 6 animals per group. Animals are tested at 30, 60 and 120 minutes post drug. Additional time periods are tested if indicated by previous tests. A dose range determination is generally reserved for those compounds which inhibit convulsions by greater than about 45-55% at the screening dose employed at the time the test was performed. When the peak activity time has been determined, a dose response is initiated, using 10 animals per group at that time period.
as §2

In experiment [1], `CNC(=O)N1CCC(Oc2c(F)c(F)c(F)c(F)c2F)(c2ccccc2)CC1` [1-(N-Methylamino)carbonyl-4-(2,3,4,5,6-pentafluorophenoxy)-4-phenylpiperidine] displayed an ED50 of 64.3 mg/kg.

In the case of `CNC(=O)N1CCC(Oc2ccc([N+](=O)[O-])cc2)(c2ccccc2)CC1` [1-(N-Methylamino)carbonyl-4-(4-nitrophenoxy)-4-phenylpiperidine], the “Analgesic Activity: % Inhibition of writhing at a screening dose of 20 mg/kg, s.c.” value (shortened to “Analgesic Activity: % Inhibition”) in experiment [2] is listed as 34%. In experiment [1], this compound gave a 50% effective dose (ED50) of 55.2 mg/kg. `CNC(=O)N1CCC(Oc2cccc(C(F)(F)F)c2)(c2ccccc2)CC1` [1-(N-Methylamino)carbonyl-4-phenyl-4-(3-trifluoromethylphenoxy)piperidine] displayed an ED50 in experiment [3] of 43.5 mg/kg. Regarding `CNC(=O)N1CCC(Oc2ccc(C(F)(F)F)cc2)(c2ccccc2)CC1` [1-(N-Methylamino)carbonyl-4-phenyl-4-(4-trifluoromethylphenoxy)piperidine], the 50% effect level in experiment [1] (ED50) was put at a dose of 41.2 mg/kg.

On to `CC(=O)N1CCC(Oc2c(F)c(F)c(F)c(F)c2F)(c2ccccc2)CC1` [1-Acetyl-4-(2,3,4,5,6-pentafluorophenoxy)-4-phenylpiperidine], for which, in experiment [2], the “Analgesic Activity: % Inhibition” value stood at 38%. Besides, the ED50 in experiment [1] came to 60.5 mg/kg.

Regarding `CC(=O)N1CCC(Oc2cccc(Cl)c2)(c2ccccc2)CC1` [1-Acetyl-4-(3-chlorophenoxy)-4-phenylpiperidine], the “Analgesic Activity: % Inhibition” value in experiment [2] is 33%. Further, the ED50 in experiment [3] is 55.4 mg/kg. For the compound `CC(=O)N1CCC(Oc2cccc(C(F)(F)F)c2)(c2ccccc2)CC1` [1-Acetyl-4-phenyl-4-(3-trifluoromethylphenoxy)piperidine], the “Analgesic Activity: % Inhibition” value in experiment [2] is 48%. In the case of `CC(=O)N1CCC(Oc2ccc(C(F)(F)F)cc2)(c2ccccc2)CC1` [1-Acetyl-4-phenyl-4-(4-trifluoromethylphenoxy)piperidine], the “Analgesic Activity: % Inhibition” value in experiment [2] was found to be 32%. For the same compound, the ED50 amounted to 44.8 mg/kg in experiment [1] and 32.1 mg/kg in experiment [3]. Take `NC(=O)N1CCC(Oc2ccc([N+](=O)[O-])cc2)(c2ccccc2)CC1` [1-Aminocarbonyl-4-(4-nitrophenoxy)-4-phenylpiperidine]: the “Analgesic Activity: % Inhibition” value in experiment [2] was 42%. Regarding `O=C(Cn1ccnc1)N1CCC(Oc2c(F)c(F)c(F)c(F)c2F)(c2ccccc2)CC1` [1-[2-(Imidazol-1-yl)acetyl]-4-(2,3,4,5,6-pentafluorophenoxy)-4-phenylpiperidine], the ED50 in experiment [1] worked out at 38 mg/kg. As to `CC(=O)Oc1ccccc1C(=O)O` [asprin, reference compound], in experiment [2], the “Analgesic Activity: % Inhibition” value turned out to be 33%. As for `CCC1(c2ccccc2)C(=O)NC(=O)NC1=O` [phenobarbital, reference compound], it took a dose of 8.4 mg/kg to reach the 50% effect level in experiment [3] (ED50).
